From patent US20050239656A1, “Pyridine compounds or salts thereof and herbicides containing the same” (priority 2002, published 2005)

Assays:
[1] = system: barnyardgrass; test: Test Example 1: foliage treatment, upland pot test; format: in vivo, Echinochloa crus-galli L.; conditions: active ingredient 500 g/ha, observed 18th to 23rd day, 0 = non-treated, 100 = complete kill
How it was run: (§1)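 Sow in upland field soil; grow to leaf stage (barnyardgrass 1.3–2.8, soybean 0.1–0.4, wheat 1.3–2.4, rice 1.2–2.6); spray foliage with compound in water, 500 L/ha, spreader 0.1% (v/v); assess visually at 18–23 d, 0 (as untreated) to 100 (full kill).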

[2] = system: crabgrass; test: Test Example 1: foliage treatment, upland pot test; format: in vivo, Digitaria sanguinalis L.; conditions: active ingredient 500 g/ha, observed 18th to 23rd day, 0 = non-treated, 100 = complete kill
[3] = system: green foxtail; test: Test Example 1: foliage treatment, upland pot test; format: in vivo, Setaria viridis L.; conditions: active ingredient 500 g/ha, observed 18th to 23rd day, 0 = non-treated, 100 = complete kill
[4] = system: redroot pigweed; test: Test Example 1: foliage treatment, upland pot test; format: in vivo, Amaranthus retroflexus L.; conditions: active ingredient 500 g/ha, observed 18th to 23rd day, 0 = non-treated, 100 = complete kill
[5] = system: prickly sida; test: Test Example 1: foliage treatment, upland pot test; format: in vivo, Sida spinosa L.; conditions: active ingredient 500 g/ha, observed 18th to 23rd day, 0 = non-treated, 100 = complete kill
[6] = system: velvetleaf; test: Test Example 1: foliage treatment, upland pot test; format: in vivo, Abutilon theophrasti MEDIC.; conditions: active ingredient 500 g/ha, observed 18th to 23rd day, 0 = non-treated, 100 = complete kill
[7] = system: rice; test: Test Example 1: foliage treatment, upland pot test; format: in vivo, Oryza sativa L.; conditions: crop, active ingredient 500 g/ha, observed 18th to 23rd day, 0 = non-treated, 100 = complete kill
How it was run: as §1

[8] = system: corn; test: Test Example 1: foliage treatment, upland pot test; format: in vivo, Zea mays L.; conditions: crop, active ingredient 500 g/ha, observed 18th to 23rd day, 0 = non-treated, 100 = complete kill
How it was run: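 Corn seeds were sown in upland field soil held in a 1/170,000 ha pot and grown to the 2.1 to 3.2 leaf stage. A wettable powder or emulsifiable concentrate of the test compound was diluted with water at 500 L/ha, given 0.1% (v/v) agricultural spreader, and sprayed onto the foliage with a small sprayer. Growth controlling degree (%) was scored visually 18th to 23rd days later, from 0 (non-treated) to 100 (complete kill).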

[9] = system: soybean; test: Test Example 1: foliage treatment, upland pot test; format: in vivo, Glycine max Merr.; conditions: crop, active ingredient 500 g/ha, observed 18th to 23rd day, 0 = non-treated, 100 = complete kill
How it was run: as §1

[10] = system: barnyardgrass; test: Test Example 2: soil surface treatment, upland pot test; format: in vivo, Echinochloa crus-galli L.; conditions: active ingredient 500 g/ha, observed 20th to 28th day
How it was run: (§2)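 Pre-emergence: the soil surface was sprayed 1 day after sowing with wettable powder or emulsifiable concentrate diluted in water at 1,500 L/ha, at a predetermined active ingredient amount. Growth control was scored visually 20–28 days after treatment, 0 (untreated) to 100 (complete kill).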

[11] = system: crabgrass; test: as above; format: in vivo, Digitaria sanguinalis L.; conditions: active ingredient 500 g/ha, observed 20th to 28th day
How it was run: as §2

[12] = system: green foxtail; test: as above; format: in vivo, Setaria viridis L.; conditions: active ingredient 500 g/ha, observed 20th to 28th day
How it was run: as §2

[13] = system: redroot pigweed; test: as above; format: in vivo, Amaranthus retroflexus L.; conditions: active ingredient 500 g/ha, observed 20th to 28th day
How it was run: as §2

[14] = system: prickly sida; test: as above; format: in vivo, Sida spinosa L.; conditions: active ingredient 500 g/ha, observed 20th to 28th day
How it was run: as §2

[15] = system: velvetleaf; test: as above; format: in vivo, Abutilon theophrasti MEDIC.; conditions: active ingredient 500 g/ha, observed 20th to 28th day
How it was run: as §2

[16] = system: rice; test: as above; format: in vivo, Oryza sativa L.; conditions: active ingredient 500 g/ha, observed 20th to 28th day
How it was run: as §2

[17] = system: corn; test: as above; format: in vivo, Zea mays L.; conditions: active ingredient 500 g/ha, observed 20th to 28th day
How it was run: as §2

[18] = system: soybean; test: as above; format: in vivo, Glycine max Merr.; conditions: active ingredient 500 g/ha, observed 20th to 28th day
How it was run: as §2

[19] = system: barnyardgrass; test: Test Example 3: paddy pot test, application under submerged conditions; format: in vivo, Echinochloa crus-galli L.; conditions: submerged application at 0.5 leaf stage, visually observed 14 days after application, 0 = non-treated, 100 = complete kill
How it was run: (§3)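 Paddy soil pots; seeds sown, lightly covered; flooded 0.5–1 cm in greenhouse; wapato tubers planted day 1–2; flood raised to 3–4 cm. Submerged pipette application at 0.5 leaf / primary leaf stage. Visual score day 14, 0–100%.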

[20] = system: japanese bulrush; test: as above; format: in vivo, Scirpus juncoides; conditions: submerged application at 0.5 leaf stage, visually observed 14 days after application, 0 = non-treated, 100 = complete kill
How it was run: as §3

[21] = system: japanese ribbon wapato; test: as above; format: in vivo, Sagittaria pygniaea; conditions: submerged application at primary leaf stage, visually observed 14 days after application, 0 = non-treated, 100 = complete kill
How it was run: as §3

[22] = system: rice (var. Nihonbare); test: Test Example 3: paddy pot test, transplanted rice; format: in vivo, Oryza sativa L.; conditions: applied 4th day after transplantation, visually observed 21st day after application, 0 = non-treated, 100 = complete kill
How it was run: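 Visual crop-injury rating (0 = as untreated, 100 = complete kill, %) taken 21 days post-application. Treatment: formulated compound, water-diluted, pipetted into 3–4 cm flood water at a preset active-ingredient dose, 4 days after transplanting 2-leaf Nihonbare rice 3 cm deep in puddled paddy soil.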

SMILES	Growth controlling degree (%) Barnyardgrass [1] [%]	Growth controlling degree (%) Crabgrass [2] [%]	Growth controlling degree (%) Green foxtail [3] [%]	Growth controlling degree (%) Redroot pigweed [4] [%]	Growth controlling degree (%) Prickly sida [5] [%]	Growth controlling degree (%) Velvetleaf [6] [%]	Growth controlling degree (%) Rice [7] [%]	Growth controlling degree (%) Corn [8] [%]	Growth controlling degree (%) Soybean [9] [%]	Growth controlling degree (%) Barnyardgrass [10] [%]	Growth controlling degree (%) Crabgrass [11] [%]	Growth controlling degree (%) Green foxtail [12] [%]	Growth controlling degree (%) Redroot pigweed [13] [%]	Growth controlling degree (%) Prickly sida [14] [%]	Growth controlling degree (%) Velvetleaf [15] [%]	Growth controlling degree (%) Rice [16] [%]	Growth controlling degree (%) Corn [17] [%]	Growth controlling degree (%) Soyabean [18] [%]	Growth controlling degree (%) Barnyardgrass ([19]; active ingredient 250 g/ha) [%]	Growth controlling degree (%) Japanese bulrush ([20]; active ingredient 250 g/ha) [%]	other results
CC(C)C(c1cnccc1Cl)N(C)C(=O)Cc1ccc(C(F)(F)F)cc1 (centres unmarked) [I-69]	10	90	30	70	80	95	10	60	60	95	98	85	50	80	20	10	20	40			Growth controlling degree (%) Barnyardgrass ([19]; active ingredient 125 g/ha): 95%; Growth controlling degree (%) Japanese bulrush ([20]; active ingredient 125 g/ha): 70%; Growth controlling degree (%) Japanese ribbon wapato ([21]; active ingredient 125 g/ha): 40%; Growth controlling degree (%) Rice ([22]; active ingredient 125 g/ha): 0%
CC(C)C(c1cnccc1Cl)N(C)C(=O)Cc1c(F)cccc1F (centres unmarked) [I-70]	40	80	60	50	80	80	20	50	30	80	98	70	70	50	0	40	0	0			Growth controlling degree (%) Barnyardgrass ([19]; active ingredient 125 g/ha): 80%; Growth controlling degree (%) Japanese bulrush ([20]; active ingredient 125 g/ha): 70%; Growth controlling degree (%) Japanese ribbon wapato ([21]; active ingredient 125 g/ha): 40%; Growth controlling degree (%) Rice ([22]; active ingredient 125 g/ha): 10%
CC(C)C(c1cnccc1C(F)(F)F)N(C)C(=O)Cc1cc(F)ccc1F (centres unmarked) [I-85]	80	90	85	70	80	90	40	60	80	100	100	100	90	100	80	10	10	40	100	98	Growth controlling degree (%) Japanese ribbon wapato ([21]; active ingredient 250 g/ha): 70%; Growth controlling degree (%) Rice ([22]; active ingredient 250 g/ha): 0%
CC(C)C(c1cnccc1C(F)(F)F)N(C)S(=O)(=O)c1ccccc1 (centres unmarked) [I-117, N-methyl-N-[2-methyl-1-(4-trifluoromethylpyridin-3-yl)propyl]phenylsulfonamide]	80	80	40	50	70	80	20	30	60	100	95	100	60	70	50	40	20	10	95	98	Growth controlling degree (%) Japanese ribbon wapato ([21]; active ingredient 250 g/ha): 0%; Growth controlling degree (%) Rice ([22]; active ingredient 250 g/ha): 0%
CCC(=O)N(C)C(c1cnccc1C(F)(F)F)C(C)C (centres unmarked) [I-163]	90	98	90	80	80	70	80	90	80	100	100	100	70	95	90	50	60	40	100	99	Growth controlling degree (%) Japanese ribbon wapato ([21]; active ingredient 250 g/ha): 90%; Growth controlling degree (%) Rice ([22]; active ingredient 250 g/ha): 60%
